Test results reported in US6355642B1, “Tetrahydrobenzindole compounds” (Meiji Seika Kaisha, Ltd., priority 1996, dated 2002).
Like-named read-outs stand apart in the source and are kept apart here.

What was measured:
[1] = molecular target: T1, human serotonin 5-HT7 receptor subtype (Homo sapiens, UniProt P34969); experiment: Binding affinity for 5-HT7 receptor ([3H]-5-CT displacement, membrane fraction of expressing cells)
T1 construct: expressed in transfected cells
Protocol: Binding Affinity for 5-HT7 Receptor
Cultured cells capable of expressing human serotonin 5-HT7 receptor subtype were collected in an assay buffer (50 mM Tris-HCl, pH 7.4, containing […], 0.2 mM EDTA, 0.001% pargyline and 0.1% ascorbic acid) and homogenized with a Potter type homogenizer. Then the membrane fraction was subjected to 20 minutes of centrifugation at 39,000 g and at 4° C. The thus obtained pellet was re-suspended in 1 ml (per cells per one culture dish of 10 cm in diameter) of the assay buffer and homogenized again. This test was carried out on 1 nM in final concentration of [^3H]-5-CT (carboxamide triptamine) and 1 to 1, 000 nM of the compounds of Examples 1 to 90 represented by the general formula (I). A 100 μl of the membrane fraction was added to the reaction tube, final assay volume was adjusted to 500 μl, and the reaction was carried out by incubating the medium at 37° C. for 15 minutes. The incubation was terminated by quickly filtering the reaction system on a GF/B filter which was subsequently washed with 6 ml of cold 50 mM Tris-HCl (pH 7.4). Radioactivity was measured using Packard liquid scintillation counter. Non-specific binding was determined by 10 μM metergoline, and the specific binding was calculated based on the difference. IC50 value of each compound was determined by non-linear least square regression analysis, and dissociation constant Ki was calculated from the value.

[2] = molecular target: T2, 5-HT2 receptor (Rattus norvegicus, UniProt P14842); experiment: Binding affinity for 5-HT2 receptor ([3H]ketanserin displacement, rat cerebral cortex P2 fraction); conditions: 1 nM [3H]ketanserin, Ki calculated from IC50
T2 construct: the thus obtained precipitate was used as P2 fraction; from tissue; host or cells: rat cerebral cortex, P2 membrane fraction
T2 sequence (P14842 whole entry): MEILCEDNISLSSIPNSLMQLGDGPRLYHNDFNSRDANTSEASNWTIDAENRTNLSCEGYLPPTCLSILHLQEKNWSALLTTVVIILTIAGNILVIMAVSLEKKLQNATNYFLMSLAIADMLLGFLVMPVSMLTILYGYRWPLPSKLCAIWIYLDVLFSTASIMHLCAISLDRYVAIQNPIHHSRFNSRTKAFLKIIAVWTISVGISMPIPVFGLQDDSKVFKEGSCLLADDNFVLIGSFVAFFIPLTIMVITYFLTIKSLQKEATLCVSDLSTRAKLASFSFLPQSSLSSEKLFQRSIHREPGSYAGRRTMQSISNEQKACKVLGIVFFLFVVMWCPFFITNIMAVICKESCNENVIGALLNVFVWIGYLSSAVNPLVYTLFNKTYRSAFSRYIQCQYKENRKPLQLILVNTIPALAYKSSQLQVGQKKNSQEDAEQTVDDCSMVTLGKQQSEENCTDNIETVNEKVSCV
Protocol: Binding Affinity for 5-HT2 receptor
Rat cerebral cortex was homogenized in 10 volumes of 0.32 M sucrose solution and centrifuged for 10 minutes at 900×g, and the resulting supernatant fluid was again centrifuged for 20 minutes at 11,500×g. The thus obtained precipitate was re-suspended in […] Tris-HCl (pH 7.4) buffer and centrifuged for 20 minutes at 39,900×g, and the thus obtained precipitate was used as P2 fraction. The P2 fraction was incubated at 37° C. for 15 minutes in 50 mM Tris-HCl (pH 7.4) buffer containing 1 nM of [^3H] ketanserin and each of the compounds of the present invention and then filtered after the reaction using Whatman GF/B glass filter. The ^3H radioactivity on the filter was measured using a liquid scintillation counter. Non-specific binding was determined in the presence of 10 μM ketanserin, and the specific binding was calculated based on the difference. IC50 value of each compound was determined by non-linear least square regression analysis, and dissociation constant Ki was calculated from the value. The dissociation constant of 5-HT2 obtained by this test, dissociation constant of 5-HT7 obtained in Test Example 1 and their ratio are shown in the following table. As is evident from the results shown in the following table, compounds of the present invention show their affinity for 5-HT2 receptor too, but they bind more selectively to 5-HT7 receptor.

[3] = human 5-HT7 expressing cultured cells, 1 nM [3H]-5-CT, Ki calculated from IC50, read-out: Ki (nM) of 5-HT7

T1 sequence (P34969 whole entry): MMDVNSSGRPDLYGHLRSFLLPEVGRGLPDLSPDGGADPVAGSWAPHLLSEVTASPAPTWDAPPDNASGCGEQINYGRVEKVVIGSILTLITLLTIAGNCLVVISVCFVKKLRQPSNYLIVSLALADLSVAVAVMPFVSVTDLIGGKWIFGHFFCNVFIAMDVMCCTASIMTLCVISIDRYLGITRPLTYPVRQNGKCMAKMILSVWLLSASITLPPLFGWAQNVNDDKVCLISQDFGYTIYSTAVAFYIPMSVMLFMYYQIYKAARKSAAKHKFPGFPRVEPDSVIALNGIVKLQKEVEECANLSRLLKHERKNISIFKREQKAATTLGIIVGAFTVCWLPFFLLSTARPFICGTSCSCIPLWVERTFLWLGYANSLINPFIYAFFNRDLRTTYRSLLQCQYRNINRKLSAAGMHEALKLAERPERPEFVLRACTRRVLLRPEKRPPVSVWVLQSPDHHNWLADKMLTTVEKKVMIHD

Compound	Ki [1, 3]	5-HT2/5-HT7 ([1]; ratio of dissociation constants Ki 5-HT2 / Ki 5-HT7)	Ki [2]	Ki [1]
O=C1Nc2cccc3c2C1(CCCCN1CCN(c2ccccn2)CC1)CCC3 (stereo not shown) [Compound 87, 2a-[4-{4-(^2-Pyridyl)piperazinyl}butyl]-2a,3,4,5-tetrahydrobenz[cd]indole-2(1H)-one]	11 nM	11.0	120 nM	
COC1(c2ccccc2)CCN(CCCCC23CCCc4cccc(c42)NC3=O)CC1 (stereo not shown) [Compound 56, 2a-[4-(4-Methoxy-4-phenyl-piperidyl)butyl]-2a,3,4,5-tetrahydrobenz[cd]indole-2(1H)-one]			414 nM	27 nM
COc1ccccc1N1CCN(CCCCC23CCCc4cccc(c42)NC3=O)CC1 (stereo not shown) [Compound 5, 2a-[4-{4-(2-Methoxyphenyl)piperazinyl}butyl]-2a,3,4,5-tetrahydrobenz[cd]indole-2(1H)-one]	8.9 nM		61 nM	
